Each block holds one compound with its values, some of them ahead of it. Residues, ends and D or L forms follow the SMILES beside them.
Key:
COX-1 = test system: COX-1; set-up: method as in PMID 20188172; conditions: known COX-1 selective inhibitors from Chinese herbs; cited from earlier work
MAGL enzyme = target: T1, MAGL enzyme (Homo sapiens, UniProt Q99685); test: Monoacylglycerol lipase inhibition screening assay; assay type: biochemical
T1 construct: purchased Cayman
T1 sequence (Q99685 1-303): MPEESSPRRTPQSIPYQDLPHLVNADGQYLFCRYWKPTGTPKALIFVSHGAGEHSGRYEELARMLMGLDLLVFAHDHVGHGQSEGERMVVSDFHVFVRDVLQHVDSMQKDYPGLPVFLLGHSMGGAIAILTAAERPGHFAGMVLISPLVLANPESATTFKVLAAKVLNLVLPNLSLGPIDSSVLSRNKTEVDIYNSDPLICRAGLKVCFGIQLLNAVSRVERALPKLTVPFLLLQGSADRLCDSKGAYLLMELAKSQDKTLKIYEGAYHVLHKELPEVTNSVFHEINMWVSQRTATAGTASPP
From the text: Monoacylglycerol lipase (MAGL) is a serine hydrolase that catalyses the hydrolysis of monoglycerides into glycerol and fatty acids and links the endocannabinoid and eicosanoid systems through degradation of 2-arachidaoylglycerol to arachidonic acid, a precursor of prostaglandins and other inflammatory mediators. MAGL inhibitors can have anti-nociceptive, anxiolytic, anti-inflammatory and even anti-cancer benefits. The Cayman’s Monoacylglycerol lipase inhibition screening assay kit was used to measure the inhibition of MAGL by generated hydrolysates and the positive control JZL 195 inhibitor. The assay was performed in compliance with the manufacturer’s instructions. MAGL hydrolyses 4-Nitrophenylacetate, resulting in a yellow product, 4-nitrophenol, that has an absorbance between 405–412 nm. The […] of the yellow colour is indicative of MAGL inhibition. MAGL inhibition was calculated using the following Equation:% MAGL inhibition = (corrected 100% initial activity − corrected inhibitor activity)/(corrected 100% initial activity) × 100(2) where corrected 100% initial activity was the absorbance value recorded for wells containing 150 µL 1× assay Buffer, 10 µL of MAGL enzyme and 10 µL of solvent minus the absorbance value recorded for the background well containing 160 µL of 1× Assay Buffer and 10 µL of solvent (1.4% DMSO in water).

[1] = test system: nitric oxide (NO) production; set-up: method as in doi:10.48022/mbl.2109.09005; conditions: peptide from mollusc abalone; cited from earlier work
human COX-2 enzyme = target: T2, human COX-2 enzyme (Homo sapiens, UniProt P35354); test: COX colourimetric inhibition screening assay, COX-2; assay type: biochemical; conditions: for IC50 / inhibition at 1000 µg/mL: synthesised peptide; for inhibition at 1000 µg/mL: 1 mg/mL
T2 construct: purchased Cayman Chemicals 701050
T2 sequence (P35354 18-604): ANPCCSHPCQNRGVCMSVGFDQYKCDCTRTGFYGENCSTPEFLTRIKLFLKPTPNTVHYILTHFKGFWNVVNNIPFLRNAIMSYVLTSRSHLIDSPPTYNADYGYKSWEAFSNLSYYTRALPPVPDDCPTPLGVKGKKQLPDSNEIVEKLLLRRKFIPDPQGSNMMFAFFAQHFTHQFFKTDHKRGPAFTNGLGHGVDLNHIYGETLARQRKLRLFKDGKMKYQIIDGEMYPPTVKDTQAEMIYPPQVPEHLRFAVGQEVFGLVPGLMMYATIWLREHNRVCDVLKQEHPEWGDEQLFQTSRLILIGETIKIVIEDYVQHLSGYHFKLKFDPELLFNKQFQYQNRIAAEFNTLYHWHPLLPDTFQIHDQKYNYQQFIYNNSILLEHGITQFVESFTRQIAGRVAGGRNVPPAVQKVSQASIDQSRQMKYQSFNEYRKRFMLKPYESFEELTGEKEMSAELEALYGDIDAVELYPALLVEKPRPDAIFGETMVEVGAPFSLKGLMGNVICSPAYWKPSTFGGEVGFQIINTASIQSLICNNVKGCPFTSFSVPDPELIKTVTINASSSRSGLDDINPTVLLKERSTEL
Description: The anti-pain and anti-inflammatory bioactivities of generated mesopelagic hydrolysates and permeates were assessed using a cyclooxygenase inhibition assay, targeting human COX-2 and ovine COX-1 enzymes, as described previously. […] They can influence pain and inflammation related to diseases like osteoarthritis and rheumatoid arthritis, musculoskeletal injury, migraines, and cancer. COX inhibitors are indicated for mild pain and are usually prescribed for short durations of time to patients.

ovine COX-1 enzyme = target: T3, ovine COX-1 enzyme (Ovis aries, UniProt P05979); test: COX colourimetric inhibition screening assay, COX-1; assay type: biochemical; conditions: synthesised peptide
T3 construct: purchased Cayman Chemicals 701050
T3 sequence (P05979 25-600): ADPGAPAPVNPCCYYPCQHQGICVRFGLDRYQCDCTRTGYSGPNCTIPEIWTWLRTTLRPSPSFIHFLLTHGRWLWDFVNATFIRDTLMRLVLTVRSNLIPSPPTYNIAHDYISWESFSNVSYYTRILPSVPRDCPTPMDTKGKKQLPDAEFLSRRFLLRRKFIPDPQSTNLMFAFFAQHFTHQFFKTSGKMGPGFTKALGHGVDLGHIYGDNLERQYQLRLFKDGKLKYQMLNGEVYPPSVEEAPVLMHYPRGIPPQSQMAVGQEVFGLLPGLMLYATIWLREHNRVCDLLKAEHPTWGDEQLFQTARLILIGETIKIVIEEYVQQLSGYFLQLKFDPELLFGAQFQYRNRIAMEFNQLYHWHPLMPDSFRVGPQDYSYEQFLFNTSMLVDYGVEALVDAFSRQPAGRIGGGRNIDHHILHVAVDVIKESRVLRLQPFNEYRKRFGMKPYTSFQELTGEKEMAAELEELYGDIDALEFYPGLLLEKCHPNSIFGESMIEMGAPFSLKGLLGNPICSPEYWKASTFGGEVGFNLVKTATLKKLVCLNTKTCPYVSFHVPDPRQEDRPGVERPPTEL
Description: The anti-pain and anti-inflammatory bioactivities of generated mesopelagic hydrolysates and permeates were assessed using a cyclooxygenase inhibition assay, targeting human COX-2 and ovine COX-1 enzymes, as described previously. COX (Prostaglandin H synthase) inhibition plays a positive role in the prevention of a variety of health conditions, and COX inhibitors have documented analgesic, anti-inflammatory, and antipyretic properties. They can influence pain and inflammation related to diseases like osteoarthritis and rheumatoid arthritis, musculoskeletal injury, migraines, and cancer. COX inhibitors are indicated for mild pain and are usually prescribed for short durations of time to patients. […] COX inhibition was calculated using the following Equation:% COX inhibition = (Corrected 100% initial activity − Corrected Inhibitor activity)/(Corrected 100% initial activity) × 100(1) where Corrected 100% initial activity was the absorbance value recorded for wells containing 150 µL 1× assay Buffer, 10 µL of either COX-1 or COX-2 enzyme and 10 µL of solvent (DMSO) minus the absorbance value recorded for the background well containing 160 µL of 1× Assay Buffer and 10 µL of solvent.

COX-2 = test system: COX-2; set-up: method as in PMID 20188172; conditions: known COX-2 selective inhibitors; read-out: COX2- IC50; cited from earlier work
LOX-1 expression = test system: LOX-1 expression; set-up: method as in PMID 30955604; conditions: peptides from amaranth; cited from earlier work

Compound: C[C@H]1[C@H](C)CC[C@]2(C)CC[C@]3(C)C(=CC[C@@H]4[C@@]5(C)CC[C@@H](O)[C@](C)(C(=O)O)[C@@H]5CC[C@]43C)[C@H]12 [β-boswellic acid]
IC50 (COX-1): ~10 µM

Compound: O=C(Oc1ccc([N+](=O)[O-])cc1)N1CCN(Cc2cccc(Oc3ccccc3)c2)CC1 [JZL 195, reference compound]
% MAGL inhibition (MAGL enzyme; positive control at 4.4 µM): 98.16%

Compound: PFNEGTFAAS [literature peptide derived from mollusc abalone]
NO IC50 [1]: 54.07 µg/mL

IC50 (human COX-2 enzyme): 221 µM | inhibition at 1000 µg/mL (human COX-2 enzyme): 53.8% | % COX-1 inhibition (ovine COX-1 enzyme; concentration not printed with the value): 82.90% (+/−0.54)
Compound: CC(C)C[C@H](NC(=O)[C@H](C)NC(=O)[C@H](Cc1c[nH]c2ccccc12)NC(=O)[C@@H]1CCCN1C(=O)[C@H](CCCNC(=N)N)NC(=O)[C@H](Cc1c[nH]cn1)NC(=O)[C@H](CC(C)C)NC(=O)[C@@H]1CCCN1C(=O)[C@H](CS)NC(=O)[C@@H](N)CCC(N)=O)C(=O)O [QCPLHRPWAL] (H-QCPLHRPWAL-OH)

% COX-1 inhibition (ovine COX-1 enzyme; 0.5 mg/mL): 34.49%
Compound: FDAFLPM [peptide from Irish M. muelleri Alcalase hydrolysate (Code 23), chemically synthesised]

Compound: CC(=O)O[C@@H]1CC[C@@]2(C)[C@@H](CC[C@]3(C)[C@@H]2CC=C2[C@@H]4[C@@H](C)[C@H](C)CC[C@]4(C)CC[C@]23C)[C@@]1(C)C(=O)O [acetyl-β-boswellic acid]
IC50 (COX-1): ~10 µM

Compound: CC(=O)O[C@@H]1CC[C@@]2(C)[C@@H](CC[C@]3(C)[C@@H]2C(=O)C=C2[C@@H]4[C@@H](C)[C@H](C)CC[C@]4(C)CC[C@]23C)[C@@]1(C)C(=O)O [Acetyl-11-keto-β-boswellic acid]
IC50 (COX-1): ~10 µM

Compound: CC(=O)O[C@@H]1CC[C@@]2(C)[C@@H](CC[C@]3(C)[C@@H]2CC=C2[C@@H]4CC(C)(C)CC[C@]4(C)CC[C@]23C)[C@@]1(C)C(=O)O [acetyl-α-boswellic acid]
IC50 (COX-1): ~10 µM

Compound: CCC/C=C1\OC(=O)C2=C1CC[C@H]1[C@H]3C=C4C(=O)O/C(=C\CCC)[C@@]4(CC3)[C@@H]21 [Senkyunolide O]
IC50 (COX-2): 5 µM

Compound: HGSEPFGPR [literature anti-inflammatory peptide from amaranth]
effect on LOX-1 expression (LOX-1 expression): reduce LOX-1 expression

IC50 (MAGL enzyme; synthesised peptide): 6.35 µM | inhibition at 500 µg/mL (MAGL enzyme; synthesised peptide, 0.5 mg/mL): 53%
Compound: CC[C@H](C)[C@H](NC(=O)[C@H](CC(C)C)NC(=O)[C@H](C)NC(=O)[C@H](CCC(=O)O)NC(=O)[C@@H]1CCCN1C(=O)[C@H](CC(C)C)NC(=O)CNC(=O)[C@H](CC(C)C)NC(=O)[C@H](C)NC(=O)[C@H](C)NC(=O)[C@@H](NC(=O)[C@H](CC(C)C)NC(=O)[C@H](Cc1ccccc1)NC(=O)[C@@H](NC(=O)[C@H](CS)NC(=O)[C@@H](NC(=O)[C@@H](NC(=O)[C@H](CCC(=O)O)NC(=O)CNC(=O)[C@@H](NC(=O)[C@@H](N)CC(N)=O)C(C)C)C(C)C)C(C)C)[C@@H](C)CC)[C@@H](C)O)C(=O)O (H-NVGEVVCIFLTAALGLPEALI-OH)

selectivity index (human COX-2 enzyme; COX-1 versus COX-2 IC50 of synthesised peptide): 0.52 | IC50 (human COX-2 enzyme): 366 µM | inhibition at 1000 µg/mL (human COX-2 enzyme): 47.5% | IC50 (ovine COX-1 enzyme): 103 µM | inhibition at 1000 µg/mL (ovine COX-1 enzyme; 1 mg/mL): 53.3%
Compound: CC[C@H](C)[C@H](N)C(=O)N[C@@H](C)C(=O)NCC(=O)N[C@@H](Cc1ccccc1)C(=O)N[C@@H](CCC(=O)O)C(=O)N[C@H](C(=O)N[C@@H](Cc1ccccc1)C(=O)N[C@@H](CC(=O)O)C(=O)N[C@@H](Cc1ccccc1)C(=O)N[C@@H](CC(N)=O)C(=O)N[C@@H](CO)C(=O)N[C@@H](CC(C)C)C(=O)N[C@@H](CCC(=O)O)C(=O)N[C@@H](CCC(N)=O)C(=O)N[C@@H](CC(C)C)C(=O)N[C@@H](CS)C(=O)O)[C@@H](C)CC (H-IAGFEIFDFNSLEQLC-OH)

Compound: RPRYPWRYT [literature anti-inflammatory peptide from amaranth]
effect on LOX-1 expression (LOX-1 expression): reduce LOX-1 expression

Compound: C[C@H]1COC2=C1C(=O)C(=O)c1c2ccc2c1CCCC2(C)C [cryptotanshinone]
IC50 (COX-2): 22 µM

inhibition at 500 µg/mL (ovine COX-1 enzyme; 0.5 mg/mL): 53.7%
Compound: CSCC[C@H](NC(=O)[C@H](Cc1ccccc1)NC(=O)[C@H](CCC(N)=O)NC(=O)[C@H](Cc1ccc(O)cc1)NC(=O)[C@H](C)NC(=O)[C@H](CC(N)=O)NC(=O)[C@H](CC(=O)O)NC(=O)[C@@H](N)CO)C(=O)N[C@@H](CC(C)C)C(=O)N[C@H](C(=O)O)[C@@H](C)O (H-SDNAYQFMLT-OH)
